In PubChem BioAssay (NCI):
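Step 1: Grow cells in 96-well plates. Step 2: Expose to compound for 48 hours at 5 concentrations. Step 3: Interpolate endpoints linearly; if unreached, use highest concentration. TGI: concentration producing complete growth inhibition.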

What was measured:
Test in all cases: NCI-60 cell line screen, 48 h
M14 melanoma = test system: M14 melanoma
HOP-92 NSCLC = test system: HOP-92 NSCLC
SW-620 colon = test system: SW-620 colon
HCT-15 colon = test system: HCT-15 colon
HCT-116 colon = test system: HCT-116 colon
T-47D breast = test system: T-47D breast
UACC-62 melanoma = test system: UACC-62 melanoma
SN12C renal = test system: SN12C renal
K-562 leukemia = test system: K-562 leukemia

Row | SMILES | TGI (M14 melanoma) | TGI (HOP-92 NSCLC) | TGI (SW-620 colon) | TGI (HCT-15 colon) | TGI (HCT-116 colon) | TGI (T-47D breast) | TGI (UACC-62 melanoma) | TGI (SN12C renal) | TGI (K-562 leukemia)
1 | O=C(c1ccncc1)C1C(=O)c2ccccc2C1C1(O)c2ccccc2CC1C(O)c1ccncc1 (stereo not given) | > 100 µM | > 100 µM | > 100 µM | > 100 µM | > 100 µM | > 100 µM | 48.7 µM | > 100 µM | > 100 µM
2 | CC(=O)OC1C(COC(=O)c2ccccc2)OC(Nc2ncc(-c3ccc(Br)cc3)s2)C(OC(=O)c2ccccc2)C1OC(=O)c1ccccc1 (stereo not given) | > 100 µM | > 100 µM | > 100 µM |  | > 100 µM | > 100 µM | > 100 µM | > 100 µM | > 100 µM
3 | COC1=C(C)C(=O)c2c(c(COC(N)=O)c3n2CC(OC(C)=O)C3OC(C)=O)C1=O (stereo not given) | 0.514 µM | 0.54 µM | 0.166 µM | 0.0692 µM | 0.129 µM | 3.11 µM | 0.245 µM | 1.09 µM | > 100 µM
4 | CC1(C)[C@H]2CC[C@@]13C(=O)N1C(=O)O[C@@H]([C@H]1Cl)C(Cl)(COCc1ccccc1)C(=O)OCCO[C@H]3C2 (stereo not given in full) | > 100 µM | > 100 µM | > 100 µM | > 100 µM | > 100 µM | > 100 µM | > 100 µM |  | > 100 µM
5 | O=c1cc(N2CCCC2)[nH]c(=O)n1-c1ccccc1 | > 100 µM | > 100 µM | > 100 µM | > 100 µM | > 100 µM |  |  | > 100 µM | > 100 µM
6 | CCOC(=O)c1nnsc1NN | > 100 µM | > 100 µM | > 100 µM | > 100 µM | > 100 µM |  | > 100 µM | > 100 µM | 
7 | Cc1c2c(OCC3CCCCO3)nn(C)c(=O)c2c(C)n1-c1ccccc1 (stereo not given) | 34.9 µM | 33.1 µM |  | 33.4 µM | 31.6 µM | 70.3 µM | 31 µM | 40.6 µM | > 100 µM
8 | NS(=O)(=O)c1cccc(NC(=S)NC(=O)Nc2ccc(Cl)c(Cl)c2)c1 | 28.2 µM | 54 µM | 37.9 µM | 33.6 µM | 31.4 µM | 67.6 µM | 26 µM | 32.6 µM | 37.2 µM
9 | COC(=O)/C(C#N)=C(/NCCN)Nc1ccccc1 | > 100 µM | > 100 µM | > 100 µM | > 100 µM | > 100 µM | > 100 µM |  | > 100 µM | > 100 µM
10 | CC12CCCC3(CC(=O)C(C)(C)C3C(=O)C1)C2 (stereo not given) | > 100 µM | > 100 µM | > 100 µM | > 100 µM | > 100 µM | > 100 µM | > 100 µM | > 100 µM | > 100 µM
11 | O=C1NCN(c2ccccc2)C12CCN(CCCN1CCN(CCOC(c3ccc(F)cc3)c3ccc(F)cc3)CC1)CC2 | 3.48 µM | 3.9 µM | 7.87 µM | 5.3 µM | 3.32 µM | 3.09 µM | 3.75 µM | 4.14 µM | 10.5 µM
12 | COC(=O)[C@H](Cc1ccccc1)NC(=O)CCCCCCC(=O)NO | > 100 µM | 71.9 µM | > 100 µM | > 100 µM | 27 µM | 8.88 µM | 46.8 µM | > 100 µM | > 100 µM
13 | C=C1c2nc3ccccc3n2C=C(c2ccc(Cl)cc2)N1c1ccc(OC)cc1 | 21 µM | 43.6 µM | > 100 µM | 22.5 µM | 21.6 µM |  | > 100 µM | 60 µM | > 100 µM
14 | CCCCCCCCCc1nn2c(Cc3ccccc3)nnc2s1 | 38.6 µM |  | 33.5 µM | 35.4 µM | 31.9 µM | 97.5 µM | 37.7 µM | 32.8 µM | > 100 µM
15 | CSc1n[nH]c(N)c1C(=O)Nc1ccccc1 | > 100 µM |  | > 100 µM | > 100 µM | > 100 µM | > 100 µM | > 100 µM | > 100 µM | > 100 µM
16 | CCOP(=O)(/C=C\n1ccc(N)nc1=O)OCC | > 100 µM |  | > 100 µM | > 100 µM | > 100 µM | > 100 µM | > 100 µM | > 100 µM | > 100 µM
17 | CCOC(=O)c1nc2cc(C(F)(F)F)ccc2nc1Nc1ccc(C(=O)NC(C(=O)OCC)C(=O)OCC)cc1 |  | 58.8 µM | > 100 µM | > 100 µM | 37.4 µM |  | 27.6 µM | 47.2 µM | > 100 µM
18 | COc1ccc(C2c3cc4c(cc3OC(N3CCOCC3)C2C)OCO4)c(OC)c1OC (stereo not given) | 33.5 µM |  | > 100 µM | > 100 µM | 22.3 µM | > 100 µM | 69.7 µM | > 100 µM | 21 µM
19 | O=c1[nH]nc(Cc2ccccc2)n1/N=C/c1ccncc1 | > 100 µM | > 100 µM | > 100 µM | > 100 µM | > 100 µM | > 100 µM |  | > 100 µM | > 100 µM
20 | COc1ccc(N(C(=O)Nc2ccc(Cl)c(Cl)c2)C2c3cccn3C(=O)N2c2ccc(Cl)c(Cl)c2)cc1 (stereo not given) | > 100 µM | > 100 µM | > 100 µM | > 100 µM | > 100 µM |  | > 100 µM | > 100 µM | > 100 µM
21 | CC(C(=O)O)C(C)(O)C(=O)O (stereo not given) | > 100 µM |  | > 100 µM | > 100 µM | > 100 µM | > 100 µM | > 100 µM | > 100 µM | > 100 µM
22 | N#Cc1nc(NC(=O)c2ccccc2C(=O)O)c(C#N)[nH]1 | > 100 µM | > 100 µM | > 100 µM |  | > 100 µM | > 100 µM | > 100 µM | > 100 µM | > 100 µM
23 | Cc1ccc(C2=CC(=O)/C(=C\C(=O)c3ccc(Cl)cc3)O2)cc1 | 39.3 µM | 33.3 µM | 6.95 µM | 35.3 µM | 27.8 µM | 24.3 µM | 23.8 µM |  | 41.7 µM
24 | COc1nc(C#CC(C)(C)C)nc(OC)n1 | > 100 µM |  | 73.3 µM | 61.5 µM | > 100 µM | > 100 µM | 42 µM | 79 µM | > 100 µM
